PMC5708365, “Histone lysine methyltransferase structure activity relationships that allow for segregation of G9a inhibition and anti-Plasmodium activity” (MedChemComm, 2017)

Key:
[1] = target: T1, G9a (Homo sapiens, UniProt Q96KQ7); conditions: SPA, 5 nM G9a, H3 1-25 peptide 0.8 μM, 3H-SAM 8 μM; for IC50: read-out: G9a IC50
T1 sequence (Q96KQ7 1-1210): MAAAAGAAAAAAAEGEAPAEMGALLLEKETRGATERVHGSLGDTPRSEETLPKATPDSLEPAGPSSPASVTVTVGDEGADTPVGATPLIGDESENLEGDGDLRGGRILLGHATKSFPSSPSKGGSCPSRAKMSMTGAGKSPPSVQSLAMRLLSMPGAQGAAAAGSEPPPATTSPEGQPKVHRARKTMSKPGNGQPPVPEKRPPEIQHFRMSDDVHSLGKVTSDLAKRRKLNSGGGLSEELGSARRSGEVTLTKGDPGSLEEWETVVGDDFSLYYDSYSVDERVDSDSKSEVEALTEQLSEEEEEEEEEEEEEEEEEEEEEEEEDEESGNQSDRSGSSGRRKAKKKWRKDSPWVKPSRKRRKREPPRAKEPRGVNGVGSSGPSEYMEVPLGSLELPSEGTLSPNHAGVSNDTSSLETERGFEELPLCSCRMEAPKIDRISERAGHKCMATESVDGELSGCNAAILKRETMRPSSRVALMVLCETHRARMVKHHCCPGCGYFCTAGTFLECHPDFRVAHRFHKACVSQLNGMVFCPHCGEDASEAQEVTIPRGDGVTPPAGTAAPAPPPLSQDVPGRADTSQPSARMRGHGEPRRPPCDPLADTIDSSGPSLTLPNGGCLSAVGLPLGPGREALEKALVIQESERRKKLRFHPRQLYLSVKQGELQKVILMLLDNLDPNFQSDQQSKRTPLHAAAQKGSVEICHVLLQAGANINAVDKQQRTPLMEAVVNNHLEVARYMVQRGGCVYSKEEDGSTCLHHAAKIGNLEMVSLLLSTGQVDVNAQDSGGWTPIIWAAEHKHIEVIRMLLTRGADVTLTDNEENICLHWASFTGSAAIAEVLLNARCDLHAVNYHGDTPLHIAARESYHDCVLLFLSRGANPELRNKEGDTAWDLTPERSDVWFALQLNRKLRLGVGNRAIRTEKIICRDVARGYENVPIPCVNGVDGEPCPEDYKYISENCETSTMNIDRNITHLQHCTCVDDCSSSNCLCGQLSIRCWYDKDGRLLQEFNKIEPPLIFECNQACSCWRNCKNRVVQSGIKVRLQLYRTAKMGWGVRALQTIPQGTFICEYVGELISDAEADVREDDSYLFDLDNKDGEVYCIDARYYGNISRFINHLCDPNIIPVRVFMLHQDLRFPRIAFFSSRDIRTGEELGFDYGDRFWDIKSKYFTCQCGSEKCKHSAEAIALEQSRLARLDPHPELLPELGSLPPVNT

[2] = system: P. falciparum 3D7 strain parasites; conditions: P. falciparum 3D7, parasite-killing activity reported earlier, cited from earlier work

Row | SMILES | IC50 [1] [µM] | also measured
1 | COc1cc2nc(N3CCCCCC3)nc(NC3CCN(Cc4ccccc4)CC3)c2cc1OC [compound 9] | 0.332 | –
2 | COc1cc2nc(N3CCC(C)CC3)nc(NC3CCN(Cc4ccccc4)CC3)c2cc1OC [compound 11] | 1.33 | –
3 | COc1cc2nc(N3CCC(OC)CC3)nc(NC3CCN(Cc4ccccc4)CC3)c2cc1OC [compound 12] | 0.576 | –
4 | COc1cc2nc(N3CCC(N(C)C)CC3)nc(NC3CCN(Cc4ccccc4)CC3)c2cc1OC [compound 13] | 0.506 | –
5 | COc1cc2nc(N3CC(C)CC(C)C3)nc(NC3CCN(Cc4ccccc4)CC3)c2cc1OC (stereo not shown) [compound 14] | ~10 | G9a IC50 [1]: inactive against G9a
6 | COc1cc2nc(N3CCC(c4ccccc4)CC3)nc(NC3CCN(Cc4ccccc4)CC3)c2cc1OC [compound 16] | > 10 | –
7 | COc1cc2nc(N3CCN(C)CC3)nc(NC3CCN(Cc4cccc(C)c4)CC3)c2cc1OC [compound 18] | 0.116 | –
8 | COc1cc2nc(N3CCN(C)CC3)nc(NC3CCN(Cc4ccc(C)cc4)CC3)c2cc1OC [compound 19] | 0.078 | –
9 | COc1cc2nc(N3CCN(C)CC3)nc(NC3CCN(Cc4ccccc4C)CC3)c2cc1OC [compound 20] | 0.169 | –
10 | COc1cc2nc(N3CCN(C)CC3)nc(NC3CCN(Cc4ccc(F)cc4)CC3)c2cc1OC [compound 21] | 0.112 | –
11 | COc1cc2nc(N3CCN(C)CC3)nc(NC3CCN(Cc4cccc(F)c4)CC3)c2cc1OC [compound 22] | 0.132 | –
12 | COc1cc2nc(N3CCN(C)CC3)nc(NC3CCN(Cc4ccccc4F)CC3)c2cc1OC [compound 23] | 0.116 | –
13 | COc1cccc(CN2CCC(Nc3nc(N4CCN(C)CC4)nc4cc(OC)c(OC)cc34)CC2)c1 [compound 24] | 0.128 | –
14 | COc1cc2nc(N3CCCCC3)nc(NC3CCN(Cc4cccc(C)c4)CC3)c2cc1OC [compound 25] | 0.869 | –
15 | COc1cc2nc(N3CCCCC3)nc(NC3CCN(Cc4ccc(C)cc4)CC3)c2cc1OC [compound 26] | 0.69 | –
16 | COc1cc2nc(N3CCCCC3)nc(NC3CCN(Cc4ccccc4C)CC3)c2cc1OC [compound 27] | ~1 | –
17 | COc1cc2nc(N3CCCCC3)nc(NC3CCN(Cc4ccc(F)cc4)CC3)c2cc1OC [compound 28] | 1.21 | –
18 | COc1cc2nc(N3CCCCC3)nc(NC3CCN(Cc4cccc(F)c4)CC3)c2cc1OC [compound 29] | ~1 | –
19 | COc1cc2nc(N3CCN(C)CC3)nc(NC3CCCN(Cc4ccccc4)C3)c2cc1OC (stereo not shown) [compound 30] | ~1 | –
20 | COc1cc2nc(N3CCCCC3)nc(NC3CCCN(Cc4ccccc4)C3)c2cc1OC (stereo not shown) [compound 31] | ~1 | –

Row | SMILES | IC50 [1] [µM] | also measured
21 | COc1cc2nc(N3CCCCC3)nc(NC3CCN(Cc4ccccc4)C3)c2cc1OC (stereo not shown) [compound 33] | 0.83 | –
22 | COc1cc2nc(N3CCN(c4ccccn4)CC3)nc(NC3CCN(Cc4ccccc4)C3)c2cc1OC (stereo not shown) [compound 34] | ~10 | –
23 | COc1cc2nc(N3CCN(c4ccccn4)CC3)nc(NC3CCN(C(=O)c4ccccc4)CC3)c2cc1OC [compound 35] | > 10 | –
24 | COc1cc2nc(N3CCCCC3)nc(NC3CCN(C(=O)c4ccccc4)CC3)c2cc1OC [compound 36] | > 10 | –
25 | COc1cc2nc(N3CC(C)CC(C)C3)nc(NC3CCN(C(C)=O)CC3)c2cc1OC (stereo not shown) [compound 37] | > 1 | –
26 | COc1cc2nc(N3CCCN(C)CC3)nc(NC3CCN(C)CC3)c2cc1OC [compound 38] | – | Pf3D7 IC50 [2]: low Pf3D7 activity; IC50 ([2]; read-out: Pf3D7 IC50): > 0.3 µM
27 | COc1cc2nc(N3CCN(c4ccccn4)CC3)nc(NC3CCN(C)CC3)c2cc1OC [compound 41] | > 1 | –
28 | COc1cc2nc(N3CCCN(C)CC3)nc(NC3CCN(CC4CCCCC4)CC3)c2cc1OC [compound 44] | 0.01 | –
29 | COc1cc2nc(N3CCN(C)CC3)nc(NC3CCN(CC4CCCCC4)CC3)c2cc1OC [compound 45] | 0.025 | –
30 | COc1cc2nc(N3CCCCC3)nc(NC3CCN(CC4CCCCC4)CC3)c2cc1OC [compound 46] | 0.295 | –
31 | COc1cc2nc(N3CCCN(C)CC3)nc(NC3CCN(C4CCCCC4)CC3)c2cc1OC [compound 48] | 0.055 | –
32 | COc1cc2nc(N3CCCN(C)CC3)nc(NC3CCN(C(C)C)CC3)c2cc1OC [compound 51] | 0.055 | –
33 | COc1cc2nc(N3CCN(C)CC3)nc(NC3CCN(C(C)C)CC3)c2cc1OC [compound 52] | 0.123 | –
34 | COc1cc2nc(N3CCCCC3)nc(NC3CCN(C(C)C)CC3)c2cc1OC [compound 54] | 0.319 | –
35 | COc1cc2nc(N3CCN(C)CC3)nc(NC3CCCCC3)c2cc1OC [compound 55] | 6.44 | –
36 | COc1cc2nc(N3CCN(C)CC3)nc(Nc3ccccc3)c2cc1OC [compound 57] | > 10 | –
37 | COc1cc2nc(N3CCCCC3)nc(Nc3ccccc3)c2cc1OC [compound 58] | > 10 | –
38 | COc1cc2nc(N3CC(C)CC(C)C3)nc(Nc3ccccc3)c2cc1OC (stereo not shown) [compound 59] | > 10 | –
39 | COc1cc2c(NC3CCN(C)CC3)nc(N3CCCN(C)CC3)nc2cc1OCc1ccccc1 [compound 60] | > 1 | G9a IC50 [1]: complete loss of G9a activity
40 | COc1cc2c(NC3CCN(Cc4ccccc4)CC3)nc(N3CCN(C)CC3)nc2cc1OCc1ccccc1 [compound 61] | ~10 | G9a IC50 [1]: virtually no G9a inhibition

Row | SMILES | IC50 [1] [µM] | also measured
41 | COc1cc2c(NC3CCN(Cc4ccccc4)CC3)nc(N3CCCCC3)nc2cc1OCc1ccccc1 [compound 62] | > 50 | G9a IC50 [1]: virtually no G9a inhibition
42 | COc1cc2c(NC3CCN(C(C)C)CC3)nc(N3CCN(C)CC3)nc2cc1OCCCN1CCCCC1 [compound 68] | 0.004 | –
43 | COc1cc2c(NC3CCN(Cc4ccccc4)CC3)nc(N3CCCN(C)CC3)nc2cc1OCCCN(C)C [compound 69] | < 0.003 | –
44 | COc1cc2c(NC3CCN(Cc4ccccc4)CC3)nc(N3CCN(C)CC3)nc2cc1OCCCN(C)C [compound 70] | 0.008 | –
45 | CCCCCCCCOc1cc2nc(N3CCCN(C)CC3)nc(NC3CCN(Cc4ccccc4)CC3)c2cc1OC [compound 73] | 0.211 | –
46 | CCCCCCOc1cc2nc(N3CCCN(C)CC3)nc(NC3CCN(Cc4ccccc4)CC3)c2cc1OC [compound 74] | 0.039 | –
47 | CCCCCCOc1cc2nc(NCCCN(C)C)nc(NC3CCN(Cc4ccccc4)CC3)c2cc1OC [compound 75] | 0.039 | –
48 | CCCCCCCCOc1cc2nc(N3CCN(C)CC3)nc(NC3CCN(Cc4ccccc4)CC3)c2cc1OC [compound 76] | 1.02 | –
49 | CCCCCCOc1cc2nc(N3CCN(C)CC3)nc(NC3CCN(Cc4ccccc4)CC3)c2cc1OC [compound 77] | 0.114 | –
50 | CCCCCOc1cc2nc(N3CCN(C)CC3)nc(NC3CCN(Cc4ccccc4)CC3)c2cc1OC [compound 78] | ~1 | –
51 | CCCCOc1cc2nc(N3CCN(C)CC3)nc(NC3CCN(Cc4ccccc4)CC3)c2cc1OC [compound 79] | 0.683 | –
52 | CCCCOc1cc2nc(N3CCN(C)CC3)nc(NC3CCN(C(C)C)CC3)c2cc1OC [compound 80] | 0.843 | –
53 | COc1cc2c(NC3CCN(Cc4ccccc4)CC3)nc(N3CCN(C)CC3)nc2cc1OCCC(C)C [compound 81] | 5.34 | –
54 | COc1cc2c(NC3CCN(C(C)C)CC3)nc(N3CCN(C)CC3)nc2cc1OCCC(C)C [compound 82] | 2.03 | –
55 | COc1cc2c(NC3CCN(Cc4ccccc4)CC3)nc(N3CCN(C)CC3)nc2cc1OCCCSC [compound 83] | 0.223 | –
56 | COc1cc2c(NC3CCN(Cc4ccccc4)CC3)nc(N3CCN(C)CC3)nc2cc1OCCCCSC [compound 84] | 0.575 | –
57 | COc1cc2cc(N3CCC(OC)CC3)nc(NC3CCN(Cc4ccccc4)CC3)c2cc1OC [compound 86, N-(1-Benzylpiperidin-4-yl)-6,7-dimethoxy-3-(4-methoxypiperidin-1-yl)isoquinolin-1-amine] | > 50 | –
58 | COc1cc2cc(N3CCCCC3)nc(NC3CCN(Cc4ccccc4)CC3)c2cc1OC [compound 87, N-(1-Benzylpiperidin-4-yl)-6,7-dimethoxy-3-(piperidin-1-yl)isoquinolin-1-amine] | > 25 | –
59 | COc1cc2nc(N3CCN(C)CC3)cc(NC3CCN(C)CC3)c2cc1OC [compound 91, 6,7-Dimethoxy-2-(4-methylpiperazin-1-yl)-N-(1-methylpiperidin-4-yl)quinolin-4-amine] | 0.03 | –
